Reference: patent US20140243335A1, “SUBSTITUTED HYDOXAMIC ACIDS AND USES THEREOF” (Millennium Pharmaceuticals, Inc., priority 2010, published 2014)

Target: T1, purified human HDAC6 (Homo sapiens, UniProt Q9UBN7)
T1 construct: purchased BPS Bioscience 5006
T1 sequence (Q9UBN7 1-1215): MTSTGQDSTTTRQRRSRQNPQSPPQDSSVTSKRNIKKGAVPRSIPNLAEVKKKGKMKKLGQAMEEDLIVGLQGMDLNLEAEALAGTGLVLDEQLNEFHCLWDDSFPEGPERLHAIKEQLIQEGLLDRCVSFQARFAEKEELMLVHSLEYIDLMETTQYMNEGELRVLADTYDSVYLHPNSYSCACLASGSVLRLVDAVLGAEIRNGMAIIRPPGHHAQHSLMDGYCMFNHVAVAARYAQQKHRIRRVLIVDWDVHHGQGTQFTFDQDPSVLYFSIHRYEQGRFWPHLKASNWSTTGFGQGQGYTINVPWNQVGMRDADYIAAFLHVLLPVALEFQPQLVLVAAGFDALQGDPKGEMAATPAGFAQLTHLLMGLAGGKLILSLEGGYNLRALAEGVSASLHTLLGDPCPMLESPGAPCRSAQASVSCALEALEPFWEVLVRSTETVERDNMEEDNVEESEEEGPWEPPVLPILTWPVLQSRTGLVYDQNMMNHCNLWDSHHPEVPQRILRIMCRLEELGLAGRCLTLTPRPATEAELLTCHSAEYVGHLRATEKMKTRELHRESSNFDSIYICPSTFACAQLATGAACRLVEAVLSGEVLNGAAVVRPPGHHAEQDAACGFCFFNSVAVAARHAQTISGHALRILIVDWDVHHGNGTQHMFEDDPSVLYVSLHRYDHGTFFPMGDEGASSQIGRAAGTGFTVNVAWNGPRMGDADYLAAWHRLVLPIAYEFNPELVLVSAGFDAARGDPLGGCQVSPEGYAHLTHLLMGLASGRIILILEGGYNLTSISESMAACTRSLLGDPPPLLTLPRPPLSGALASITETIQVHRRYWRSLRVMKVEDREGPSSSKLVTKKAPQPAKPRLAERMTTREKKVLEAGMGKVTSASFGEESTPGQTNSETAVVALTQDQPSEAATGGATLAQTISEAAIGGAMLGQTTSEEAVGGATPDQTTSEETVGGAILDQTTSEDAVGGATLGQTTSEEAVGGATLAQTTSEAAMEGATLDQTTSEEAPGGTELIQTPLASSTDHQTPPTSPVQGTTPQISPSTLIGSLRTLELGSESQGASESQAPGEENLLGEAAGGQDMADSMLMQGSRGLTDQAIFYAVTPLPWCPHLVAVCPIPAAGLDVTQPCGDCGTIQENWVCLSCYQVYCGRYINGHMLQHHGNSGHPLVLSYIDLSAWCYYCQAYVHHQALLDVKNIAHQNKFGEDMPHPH
Experiment: HDAC6 Enzyme Assay
Type: biochemical
Conditions: HDAC6 inhibition at a compound concentration of 0.412 μM; read-out: Percent Inhibition at 0.412 μM
Procedure: To measure the inhibition of HDAC6 activity, purified human HDAC6 (BPS Bioscience; Cat. No. 5006) is incubated with substrate Ac-Arg-Gly-Lys(Ac)-AMC peptide (Bachem Biosciences; Cat. No. I-1925) for 1 hour at 30° C. in the presence of test compounds or vehicle DMSO control. The reaction is stopped with the HDAC inhibitor trichostatin A (Sigma; Cat. No. T8552) and the amount of Arg-Gly-Lys-AMC generated is quantitated by digestion with trypsin (Sigma; Cat. No. T1426) and subsequent measurement of the amount of AMC released using a fluorescent plate reader (Pherastar; BMG Technologies) set at Ex 340 nm and Em 460 nm. Concentration response curves are generated by calculating the fluorescence increase in test compound-treated samples relative to DMSO-treated controls, and enzyme inhibition (IC50) values are determined from those curves.

SMILES	inhibition at 0.412 µM
COc1ccc(C(C(=O)NC2CCCc3cc(C(=O)NO)ccc32)c2ccccc2)cc1 (stereo not shown) [Compound I-41, N-hydroxy-5-{[(4-methoxyphenyl)(phenyl)acetyl]amino}-5,6,7,8-tetrahydronaphthalene-2-carboxamide]	23%
Cc1oc(S(=O)(=O)N2CCCCC2)cc1C(=O)NC1CCCc2cc(C(=O)NO)ccc21 (stereo not shown) [Compound I-37, N-{6-[(hydroxyamino)carbonyl]-1,2,3,4-tetrahydronaphthalen-1-yl}-2-methyl-5-(piperidin-1-ylsulfonyl)-3-furamide]	36%
Cc1cc(C)n(CC(=O)NC2CCCc3cc(C(=O)NO)ccc32)n1 (stereo not shown) [Compound I-11, 5-{[(3,5-dimethyl-1H-pyrazol-1-yl)acetyl]amino}-N-hydroxy-5,6,7,8-tetrahydronaphthalene-2-carboxamide]	21%
COc1cccc(C2CCc3ccc(C(=O)NO)cc3C2)c1 (stereo not shown) [Compound I-119, N-hydroxy-7-(3-methoxyphenyl)-5,6,7,8-tetrahydronaphthalene-2-carboxamide]	74%
O=C(NO)c1ccc2c(c1)C1CCC2N1C(=O)Cc1ccccc1 (stereo not shown) [Compound I-211, N-hydroxy-9-(phenylacetyl)-1,2,3,4-tetrahydro-1,4-epiminonaphthalene-6-carboxamide]	51%
O=C(NO)c1ccc2c(c1)CC(Oc1ccccc1)CC2 (stereo not shown) [Compound I-87, N-hydroxy-7-phenoxy-5,6,7,8-tetrahydronaphthalene-2-carboxamide]	92%
O=C(NO)c1ccc2c(c1)CCC(Oc1ccncc1)C2 (stereo not shown) [Compound I-108, N-hydroxy-6-(pyridin-4-yloxy)-5,6,7,8-tetrahydronaphthalene-2-carboxamide]	95%
O=C(NO)c1ccc2c(c1)CC(c1cccnc1)CC2 (stereo not shown) [Compound I-120, N-hydroxy-7-pyridin-3-yl-5,6,7,8-tetrahydronaphthalene-2-carboxamide]	85%
Cn1cccc1C(=O)N[C@@H]1CCCc2cc(C(=O)NO)ccc21 [Compound I-65, (R)-N-(6-(hydroxycarbamoyl)-1,2,3,4-tetrahydronaphthalen-1-yl)-1-methyl-1H-pyrrole-2-carboxamide]	16%
O=C(NO)c1ccc2c(c1)CC(NCCc1ccccc1)CC2 (stereo not shown) [Compound I-81, N-hydroxy-7-[(2-phenylethyl)amino]-5,6,7,8-tetrahydronaphthalene-2-carboxamide]	84%
O=C(NO)c1ccc2c(c1)CCCC2NC(=O)c1cc2ccccc2o1 (stereo not shown) [Compound I-45, N-{6-[(hydroxyamino)carbonyl]-1,2,3,4-tetrahydronaphthalen-1-yl}-1-benzofuran-2-carboxamide]	47%
Cn1c(C(=O)N[C@@H]2CCCc3cc(C(=O)NO)ccc32)cc2ccccc21 [Compound I-64, N-{(1R)-6-[(hydroxyamino)carbonyl]-1,2,3,4-tetrahydronaphthalen-1-yl}-1-methyl-1H-indole-2-carboxamide]	18%
CC(=O)Nc1cc(C2CCc3ccc(C(=O)NO)cc3C2)ccn1 (stereo not shown) [Compound I-97, 7-[2-(acetylamino)pyridin-4-yl]-N-hydroxy-5,6,7,8-tetrahydronaphthalene-2-carboxamide]	92%
Cc1onc(-c2ccccc2Cl)c1C(=O)NC1CCCc2cc(C(=O)NO)ccc21 (stereo not shown) [Compound I-38, 3-(2-chlorophenyl)-N-{6-[(hydroxyamino)carbonyl]-1,2,3,4-tetrahydronaphthalen-1-yl}-5-methylisoxazole-4-carboxamide]	18%
CC(=O)N/C(=C\c1ccccc1)C(=O)NC1CCCc2cc(C(=O)NO)ccc21 (stereo not shown) [Compound I-27, 5-{[(2Z)-2-(acetylamino)-3-phenylprop-2-enoyl]amino}-N-hydroxy-5,6,7,8-tetrahydronaphthalene-2-carboxamide]	11%
COc1ccccc1-c1cc(C(=O)N[C@H]2CCCc3cc(C(=O)NO)ccc32)[nH]n1 [Compound I-68, N-{(1S)-6-[(hydroxyamino)carbonyl]-1,2,3,4-tetrahydronaphthalen-1-yl}-3-(2-methoxyphenyl)-1H-pyrazole-5-carboxamide]	65%
CC(C)(C)OC(=O)N1CCC(C(=O)Nc2cc(OC3CCc4cc(C(=O)NO)ccc4C3)ccn2)CC1 (stereo not shown) [Compound I-224, tert-butyl 4-({[4-({6-[(hydroxyamino)carbonyl]-1,2,3,4-tetrahydronaphthalen-2-yl}oxy)pyridin-2-yl]amino}carbonyl)piperidine-1-carboxylate]	94%
O=C(NO)c1ccc2c(c1)CC(Oc1ccc(Cl)cc1)CC2 (stereo not shown) [Compound I-91, 7-(4-chlorophenoxy)-N-hydroxy-5,6,7,8-tetrahydronaphthalene-2-carboxamide]	93%
CCCC(=O)N1C2CCC1c1cc(C(=O)NO)ccc12 (stereo not shown) [Compound I-207, 9-butyryl-N-hydroxy-1,2,3,4-tetrahydro-1,4-epiminonaphthalene-6-carboxamide]	25%
Cc1nc2ccccn2c1C(=O)NC1CCc2cc(C(=O)NO)ccc2C1 (stereo not shown) [Compound I-55, N-{6-[(hydroxyamino)carbonyl]-1,2,3,4-tetrahydronaphthalen-2-yl}-2-methylimidazo[1,2-a]pyridine-3-carboxamide]	78%
O=C(NO)c1ccc2c(c1)CC(c1ccccc1C(F)(F)F)CC2 (stereo not shown) [Compound I-185, N-hydroxy-7-[2-(trifluoromethyl)phenyl]-5,6,7,8-tetrahydronaphthalene-2-carboxamide]	85%
CN(C)Cc1cc(C(=O)NC2CCc3cc(C(=O)NO)ccc3C2)cc(C(F)(F)F)c1 (stereo not shown) [Compound I-171, 6-{[3-[(dimethylamino)methyl]-5-(trifluoromethyl)benzoyl]amino}-N-hydroxy-5,6,7,8-tetrahydronaphthalene-2-carboxamide]	77%
CC(C)(C)c1ccc(C(=O)NC2CCCc3cc(C(=O)NO)ccc32)cc1 (stereo not shown) [Compound I-16, 5-[(4-tert-butylbenzoyl)amino]-N-hydroxy-5,6,7,8-tetrahydronaphthalene-2-carboxamide]	55%
O=C(NO)c1ccc2c(c1)CCC(NCc1ccncc1)C2 (stereo not shown) [Compound I-107, N-hydroxy-6-[(pyridin-4-ylmethyl)amino]-5,6,7,8-tetrahydronaphthalene-2-carboxamide]	84%
CCN(CC)CCNC(=O)c1cc(OC2CCc3cc(C(=O)NO)ccc3C2)ccn1 (stereo not shown) [Compound I-226, N-[2-(diethylamino)ethyl]-4-({6-[(hydroxyamino)carbonyl]-1,2,3,4-tetrahydronaphthalen-2-yl}oxy)pyridine-2-carboxamide]	93%
Cn1cc(-c2cc(C(=O)NC3CCc4ccc(C(=O)NO)cc4C3)cc(C(F)(F)F)c2)cn1 (stereo not shown) [Compound I-79, N-hydroxy-7-{[3-(1-methyl-1H-pyrazol-4-yl)-5-(trifluoromethyl)benzoyl]amino}-5,6,7,8-tetrahydronaphthalene-2-carboxamide]	94%
CC(C)(Oc1ccccc1Cl)C(=O)NC1CCCc2cc(C(=O)NO)ccc21 (stereo not shown) [Compound I-14, 5-{[2-(2-chlorophenoxy)-2-methylpropanoyl]amino}-N-hydroxy-5,6,7,8-tetrahydronaphthalene-2-carboxamide]	79%
Cc1cc(C(=O)NC2CCc3cc(C(=O)NO)ccc3C2)c(C)n1Cc1cccs1 (stereo not shown) [Compound I-48, N-{6-[(hydroxyamino)carbonyl]-1,2,3,4-tetrahydronaphthalen-2-yl}-2,5-dimethyl-1-(2-thienylmethyl)-1H-pyrrole-3-carboxamide]	62%
